Data taken from PubChem BioAssay AID1259411 (Chemical Carcinogenesis Research Information System (CCRIS), 2018).
Calls of active or inactive are those of the source. The rule behind the calls is not given here.

System: rodent carcinogenicity bioassays, tumor incidence
Assay: CCRIS carcinogenicity studies
Method in brief: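 NCI-built, expert-reviewed records of carcinogenicity and related test outcomes (mutagenicity, tumor promotion/inhibition) compiled from published and report sources, historical span 1985-2011, not updated.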

Oc1ccc2c(c1)OCO2
carcinogen call (Species: MOUSE, Strain/Sex: B6C3F1/FEMALE, Route: ORAL, Dose: 0, 2% IN DIET FOR 96 WK (STUDY DURATION: 96 WK), Tumor Site: Type of Lesion: FORESTOMACH: SQUAMOUS CELL CARCINOMA): active; positive | carcinogen call (Species: MOUSE, Strain/Sex: B6C3F1/FEMALE, Route: ORAL, Dose: 0, 2% IN POWDERED BASAL DIET FOR 96 WK (STUDY DURATION: 96 WK), Tumor Site: Type of Lesion: FORESTOMACH: SQUAMOUS CELL CARCINOMA): active; positive | carcinogen call (Species: MOUSE, Strain/Sex: B6C3F1/MALE, Route: ORAL, Dose: 0, 2% IN DIET FOR 96 WK (STUDY DURATION: 96 WK), Tumor Site: Type of Lesion: FORESTOMACH: SQUAMOUS CELL CARCINOMA): active; positive | carcinogen call (Species: MOUSE, Strain/Sex: B6C3F1/MALE, Route: ORAL, Dose: 0, 2% IN POWDERED BASAL DIET FOR 96 WK (STUDY DURATION: 96 WK), Tumor Site: Type of Lesion: FORESTOMACH: SQUAMOUS CELL CARCINOMA): active; positive | carcinogen call (Species: RAT, Strain/Sex: F344/FEMALE, Route: ORAL, Dose: 0, 2% IN DIET FOR 104 WK (STUDY DURATION: 104 WK)): inactive; negative | carcinogen call (Species: RAT, Strain/Sex: F344/FEMALE, Route: ORAL, Dose: 0, 2% IN DIET FOR 104 WK (STUDY DURATION: 104 WK), Tumor Site: Type of Lesion: FORESTOMACH: PAPILLOMA): active; positive | carcinogen call (Species: RAT, Strain/Sex: F344/FEMALE, Route: ORAL, Dose: 0, 2% IN POWDERED BASAL DIET FOR 104 WK (STUDY DURATION: 104 WK), Tumor Site: Type of Lesion: FORESTOMACH: PAPILLOMA): active; positive | carcinogen call (Species: RAT, Strain/Sex: F344/MALE, Route: ORAL, Dose: 0, 0.4% IN DIET FOR DURATION OF STUDY (STUDY DURATION: 104 WK)): inactive; negative | carcinogen call (Species: RAT, Strain/Sex: F344/MALE, Route: ORAL, Dose: 0, 2% IN DIET FOR 104 WK (STUDY DURATION: 104 WK), Tumor Site: Type of Lesion: FORESTOMACH: PAPILLOMA, SQUAMOUS CELL CARCINOMA): active; positive | carcinogen call (Species: RAT, Strain/Sex: F344/MALE, Route: ORAL, Dose: 0, 2% IN DIET FOR 104 WK (STUDY DURATION: 104 WK), Tumor Site: Type of Lesion: FORESTOMACH: SQUAMOUS CELL CARCINOMA): active; positive | carcinogen call (Species: RAT, Strain/Sex: F344/MALE, Route: ORAL, Dose: 0, 2% IN POWDERED BASAL DIET FOR 104 WK (STUDY DURATION: 104 WK), Tumor Site: Type of Lesion: FORESTOMACH: PAPILLOMA, SQUAMOUS CELL CARCINOMA): active; positive

Cc1cc(C)c(N)cc1C
carcinogen call (Species: MOUSE, Strain/Sex: B6C3F1/FEMALE, Route: ORAL, Dose: 0, 50, 100 PPM IN DIET FOR 101 WK (STUDY DURATION: 101 WK), Dose: 0, 50, 100 PPM IN DIET FOR 101 WK (STUDY DURATION: 101 WK), Tumor Site: Type of Lesion: LIVER: HEPATOCELLULAR CARCINOMA): active; positive | carcinogen call (Species: MOUSE, Strain/Sex: B6C3F1/MALE, Route: ORAL, Dose: 0, 50, 100 PPM IN DIET FOR 101 WK (STUDY DURATION: 101 WK), Dose: 0, 50, 100 PPM IN DIET FOR 101 WK (STUDY DURATION: 101 WK), Tumor Site: Type of Lesion: LIVER: HEPATOCELLULAR CARCINOMA): equivocal | carcinogen call (Species: RAT, Strain/Sex: F344/FEMALE, Route: ORAL, Dose: 0, 200, 800 PPM IN DIET FOR 101 WK (STUDY DURATION: 101 WK), Dose: 0, 200, 800 PPM IN DIET FOR 101 WK (STUDY DURATION: 101 WK), Tumor Site: Type of Lesion: LUNG: ALVEOLAR/BRONCHIOLAR ADENOMA OR CARCINOMA, LIVER: HEPATOCELLULAR CARCINOMA OR NEOPLASTIC NODULE): active; positive | carcinogen call (Species: RAT, Strain/Sex: F344/MALE, Route: ORAL, Dose: 0, 200, 800 PPM IN DIET FOR 101 WK (STUDY DURATION: 101 WK), Dose: 0, 200, 800 PPM IN DIET FOR 101 WK (STUDY DURATION: 101 WK), Tumor Site: Type of Lesion: LIVER: BILE DUCT CARCINOMA, HEPATOCELLULAR CARCINOMA OR NEOPLASTIC NODULE): active; positive

Cc1cc(-c2ccc(N/N=C3/C(=O)c4c(N)cc(S(=O)(=O)O)cc4C=C3S(=O)(=O)O)c(C)c2)ccc1N/N=C1/C(=O)c2c(N)cc(S(=O)(=O)O)cc2C=C1S(=O)(=O)O
carcinogen call (Species: RAT, Route: INTRAPERITONEAL, SUBCUTANEOUS, Tumor Site: Type of Lesion: LIVER, INJECTION SITE): active; positive

C[C@H]1O[C@@H]1Cl
carcinogen call (Species: MOUSE, Strain/Sex: ICR/FEMALE, Route: DERMAL, Dose: 10 MG IN 0.1 ML ACETONE 3/WK FOR LIFE, Tumor Site: Type of Lesion: INTEGUMENTARY SYSTEM (SKIN): PAPILLOMA, SQUAMOUS CELL CARCINOMA): active; positive | carcinogen call (Species: MOUSE, Strain/Sex: ICR/FEMALE, Route: SUBCUTANEOUS, Dose: 1 MG IN 0.05 ML TRICAPRYLIN 1/WK FOR LIFE, Tumor Site: Type of Lesion: INJECTION SITE: FIBROSARCOMA, CARCINOMA): active; positive

COc1cc(/C=C/C(=O)O[C@H]2CC[C@]34C[C@]35CC[C@]3(C)[C@@H]([C@H](C)CCC=C(C)C)CC[C@@]3(C)[C@@H]5CC[C@H]4C2(C)C)ccc1O
carcinogen call (Species: MOUSE, Strain/Sex: B6C3F1/FEMALE, Route: ORAL, Dose: 0, 200, 600, 2000 MG/KG/BW A DAY IN DIET FOR 78 WK (STUDY DURATION: 79 WK), Dose: 0, 200, 600, 2000 MG/KG/BW A DAY IN DIET FOR 78 WK (STUDY DURATION: 79 WK)): inactive; negative | carcinogen call (Species: MOUSE, Strain/Sex: B6C3F1/MALE, Route: ORAL, Dose: 0, 200, 600, 2000 MG/KG/BW A DAY IN DIET FOR 78 WK (STUDY DURATION: 79 WK), Dose: 0, 200, 600, 2000 MG/KG/BW A DAY IN DIET FOR 78 WK (STUDY DURATION: 79 WK)): inactive; negative | carcinogen call (Species: RAT, Strain/Sex: F344/FEMALE, Route: ORAL, Dose: 0, 200, 600, 2000 MG/KG/BW/D IN DIET FOR 2 YR (STUDY DURATION: 105 WK), Dose: 0, 200, 600, 2000 MG/KG/BW/D IN DIET FOR 2 YR (STUDY DURATION: 105 WK)): inactive; negative | carcinogen call (Species: RAT, Strain/Sex: F344/MALE, Route: ORAL, Dose: 0, 200, 600, 2000 MG/KG/BW/D IN DIET FOR 2 YR (STUDY DURATION: 105 WK), Dose: 0, 200, 600, 2000 MG/KG/BW/D IN DIET FOR 2 YR (STUDY DURATION: 105 WK)): inactive; negative
